# Measured values from patent US5108930A, “Aminoguanidine assay and applications thereof” (Alteon Inc., priority 1990, dated 1992).
# Entries after “also recorded” stand apart in the source; their conditions may differ. Read-outs that look alike come from different tables or passages of the source.
# Legend:
# [1] = elimination half-life of aminoguanidine in plasma of patients (HPLC assay) for measurement of kidney function; format: in vivo, human; conditions: 300 mg oral aminoguanidine hydrochloride; for half-life: human, plasma, po, 300 mg, plasma at 10, 14, 18 hours, read-out: AG T1/2 (converted)
# Procedure: A) A single 300 mg dose of aminoguanidine hydrochloride is administered to the patient. Administration may be either by a capsule or tablet taken orally, or by a liquid syrup, elixir or the like.
# B) After administration of the aminoguanidine or analog material, periodic collection of plasma samples is then conducted. For example, minimum 3 ml blood samples may be collected, and in the instance where aminoguanidine is administered in dry form as in a pill, the first sample may be taken 10 hours after ingestion, the second sample may be taken 14 hours after ingestion, and the third sample may be taken 18 hours after ingestion. In the instance where a liquid is administered, a similar regimen may be observed.
# C) The samples collected at the intervals indicated may then be processed in accordance with the method of the present invention to determine aminoguanidine concentration.
# D) Thereafter, the elimination half-life (T1/2) may be determined. Particularly, the data may be interpreted and determined by reference to the relationship wherein the slope of the logarithmic decline of plasma concentration over time is identified as the elimination rate (Kelim). Elimination half-life (T1/2) is related to Kelim by the following equation: [formula]
# To a 0.5 mL plasma sample was added 0.5 mL of the working internal standard solution (10 μg/mL N-ethyl aminoguanidine tosylate in 7.5% trichloracetic acid). After vortexing (10 sec.) and centrifugation in a microfuge (Eppendorf, 14,000 rpm, 10 min.), the supernatant was decanted into a clean screw top culture tube containing 0.1 mL of an aqueous (10 mg/mL) solution of reacting agent (6-methyl-2-pyridine-carboxaldehyde). The sample was then capped tightly and reacted in a heating block (95°-100° C.) for 10 minutes. After cooling, i the sample was transferred into an HPLC vial, from which a 200 μL aliquot was injected for HPLC analysis.
# A Waters Associates Model 510 pump was utilized with a radial compression column (Waters Novapak CN, 8 mm ×10 cm, 4 μm particle size) and a cyano (Waters Resolve Guard-Pak CN) precolumn. Detection was performed using a variable ultraviolet detector (Waters 484) at 302 nm. The mobile phase consisted of (volume to volume) 15% acetonitrile: 10% methanol: 75% of 0.01 M each of 1heptanesulfonic acid and sodium phosphate monobasic. Flow rate was maintained isocratically at 2.0 mL/min. at ambient temperature. Sequential automatic injections were made via a programmable sampler (Waters WISP 712).
# All data acquisitions were performed with a Waters Maxima 820 system. A linear test squares analysis of the ratios of drug peak height to internal standard peak height versus concentrations added to human plasma in standards constituted daily instrumentation standardization. Interpolation from the linear regression line determined concentrations of aminoguanidine in quality control and unknown assayed samples
# […] After administration of this total dosage, plasma samples were collected from each of the patients at intervals of 10 hours, 14 hours and 18 hours after administration. The plasma samples were then taken and subjected to the assay of the present invention, in accordance with the protocol utilized in Example 1.
# Accordingly, the samples were first combined with a quantity of a working internal standard solution of N-ethyl aminoguanidine tosylate in 7.5 percent trichloroacetic acid. The resulting samples were vortexed for 10 seconds and centrifuged for a period of 10 minutes at a speed of 14,000 rpm. The supernatants were then decanted into a culture tube containing 0 1 ml of an aqueous solution ([…]) of 6-methyl picolinaldehyde. The samples were then tightly capped and reacted in a heating block for a period of 10 minutes, and after cooling, were transferred into HPLC vials from which aliquots were then injected for HPLC analysis.
# A radial compression chromatographic column was utilized with an isocratic flow rate and under paired-ion conditions. […]
# histaminase = conditions: cited from earlier work
# diamine oxidase = conditions: cited from earlier work
# histamine = conditions: human pregnancy (title of cited paper); cited from earlier work
# [2] = system: glucose-mediated cross-linking of proteins; conditions: cited from earlier work
structure (smiles),measurement,setting,value
N=C(N)NN [aminoguanidine],"relationship between aminoguanidine half-life and kidney function (GFR), in words",[1],fairly consistent and linear relationship; also recorded: excellent linear correlation; also recorded: inverse relationship
same,correlation coefficient r of aminoguanidine T1/2 with GFR,[1]; n=18,0.875
same,half-life,"[1]; patient 1, GFR 12.8",24.6 h
same,half-life,"[1]; patient 2, GFR 52.4",14.2 h
same,half-life,"[1]; patient 3, GFR 116.3",3.83 h
same,half-life,"[1]; patient 4, GFR 44.1",21.8 h
same,half-life,"[1]; patient 5, GFR 31.1",19 h
same,half-life,"[1]; patient 6, GFR 80.5",6.78 h
same,half-life,"[1]; patient 7, GFR 26.7",14.8 h
same,half-life,"[1]; patient 8, GFR 12.1",24.9 h
same,half-life,"[1]; patient 9, GFR 117.2",4.73 h
same,half-life,"[1]; patient 10, GFR 148.9",3.94 h
same,half-life,"[1]; patient 11, GFR 111.9",6.82 h
same,half-life,"[1]; patient 12, GFR 103.8",6.08 h
same,half-life,"[1]; patient 13, GFR 41.6",14.9 h
same,half-life,"[1]; patient 14, GFR 39.2",9.54 h
same,half-life,"[1]; patient 15, GFR 113.2",4.81 h
same,half-life,"[1]; patient 16, GFR 82.2",6.03 h
same,half-life,"[1]; patient 18, GFR 131.3",7.05 h
same,half-life,"[1]; patient 19, GFR 131.1",6.46 h
same,inhibitory action on the enzyme histaminase,histaminase,inhibitory action
same,inhibition of diamine oxidase,diamine oxidase,selective inhibitor
same,levels of histamine,histamine,increase levels of histamine
same,inhibition of glucose-mediated cross-linking of proteins,[2],inhibitor of glucose-mediated cross-linking of proteins
